{"source": "patent US20240218022A1", "about": "“ANTI-VISTA MACROCYCLIC PEPTIDES AND COMPOSITIONS” (BRISTOL-MYERS SQUIBB COMPANY, priority 2022, published 2024)", "target": "T1, mouse VISTA (mVISTA) (Mus musculus, UniProt Q9D659)", "T1 construct": "expressed in transfected cells; host or cells: Human embryonic kidney 293T cells", "T1 sequence (Q9D659 33-308)": "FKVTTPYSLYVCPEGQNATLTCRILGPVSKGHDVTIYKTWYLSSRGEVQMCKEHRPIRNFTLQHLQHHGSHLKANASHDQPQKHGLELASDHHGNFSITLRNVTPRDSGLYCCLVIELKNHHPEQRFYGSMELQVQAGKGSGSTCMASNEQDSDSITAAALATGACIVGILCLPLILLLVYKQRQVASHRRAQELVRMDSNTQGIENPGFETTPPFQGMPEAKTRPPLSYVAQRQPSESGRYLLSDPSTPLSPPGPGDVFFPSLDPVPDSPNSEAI", "assay": "Cell-Based Binding High-Content Assay For mVISTA (HC CBA mVISTA)", "outline": "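Read-out: Alexa 647–streptavidin signal imaged on fixed, Hoechst-stained mVISTA-293T cells, with IC50 taken from a four-parameter logistic curve. Compounds competed with 2 nM biotinylated peptide for 30 min at room temperature, tested under both no-wash and wash (1 h compound, media exchange, 1 h) formats.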", "key": {"[1]": {"conditions": "cell-based binding high-content assay, mVISTA, the 16th table, read-out: HC CBA mVISTA IC50"}, "[2]": {"conditions": "cell-based binding high-content assay, mVISTA, the 15th table, read-out: HC CBA mVISTA IC50"}, "[3]": {"conditions": "cell-based binding high-content assay, mVISTA, read-out: HC CBA miPr ISTA IC50"}}, "note": "Like-named read-outs stand apart in the source and are kept apart here. Starred links: 1 amine or outer side, 2 acyl side, 3 side chain; linkers in the order of their positions; H or OH if unused. Positions of bridges follow the written chain, without caps; N, C: chain ends. Non-standard residues stand in square brackets, D forms with d. Residues, ends and D or L forms follow the SMILES beside them. Phe(4-CONH2) = NC(=O)c1ccc(C[C@H](N)C(=O)O)cc1; Phe(3-Me) = Cc1cccc(C[C@H](N)C(=O)O)c1; γGlu = O=C(O)[C@H](CCC(=O)[*:2])N[*:1]; 2Nal = N[C@@H](Cc1ccc2ccccc2c1)C(=O)O; βAsp = O=C(O)[C@H](CC(=O)[*:2])N[*:1]; Cha = N[C@@H](CC1CCCCC1)C(=O)O; Cit = NC(=O)NCCC[C@H](N)C(=O)O; Ahp(2) = CCCCC[C@H](N)C(=O)O; NMeNle = CCCC[C@H](NC)C(=O)O; Tle = CC(C)(C)[C@H](N)C(=O)O; NMeS = CN[C@@H](CO)C(=O)O; Pip = O=C(O)[C@@H]1CCCCN1; NHexGly = CCCCCCNCC(=O)O; Nle = CCCC[C@H](N)C(=O)O; Orn = NCCC[C@H](N)C(=O)O; Aun = NCCCCCCCCCCC(=O)O; AEEA = NCCOCCOCC(=O)O", "data": [{"compound": "CCCCCCN1CC(=O)N[C@@H](Cc2ccc(O)cc2)C(=O)N[C@@H](CC(C)C)C(=O)NCC(=O)N[C@@H](CCCNC(=N)N)C(=O)N[C@@H](Cc2ccc(O)cc2)C(=O)N[C@@H](CCCCC)C(=O)N2CCC[C@H]2C(=O)N[C@@H](C(C)C)C(=O)N[C@@H](CO)C(=O)N[C@H](C(=O)NCC(=O)O)CSCC(=O)N[C@@H](Cc2ccc3ccccc3c2)C(=O)N[C@@H](Cc2ccc(O)cc2)C(=O)N[C@@H](CC(=O)O)C1=O", "note": "[Ex 1292] ({CH2CO}-[2Nal]YD[NHexGly]YLGRY[Ahp(2)]PVSCG-OH; thioether N-14)", "values": [{"measurement": "IC50", "setting": "[1]", "value": 0.0299, "unit": "µM"}]}, {"compound": "CCCCCCN1CC(=O)N[C@@H](Cc2ccc(O)cc2)C(=O)N[C@@H](CC(C)C)C(=O)N[C@@H](CC(N)=O)C(=O)N[C@@H](CCCNC(=N)N)C(=O)N[C@@H](CC(C)C)C(=O)N[C@@H](CCCCC)C(=O)N2CCC[C@H]2C(=O)N[C@@H](C(C)C)C(=O)N[C@@H](Cc2c[nH]c3ccccc23)C(=O)N[C@H](C(=O)NCC(=O)O)CSCC(=O)N[C@@H](Cc2ccccc2)C(=O)N[C@@H](Cc2ccc(O)cc2)C(=O)N[C@@H](CC(=O)O)C1=O", "note": "[Example 1068] ({CH2CO}-FYD[NHexGly]YLNRL[Ahp(2)]PVWCG-OH; thioether N-14)", "values": [{"measurement": "IC50", "setting": "293T cells expressing mouse VISTA, competition with biotinylated peptide (2 nM), read-out: HC CBA mVISTA IC50", "value": 0.0394, "unit": "µM"}]}, {"compound": "CCCCCCN1CC(=O)N[C@@H](Cc2ccc(O)cc2)C(=O)N[C@@H](CCCC)C(=O)N[C@@H](CC(=O)O)C(=O)N[C@@H](CCCN)C(=O)N[C@@H](CC(C)C)C(=O)N[C@@H](CCCCC)C(=O)N2CCC[C@H]2C(=O)N[C@@H](C(C)C)C(=O)N[C@@H](CC(=O)O)C(=O)N[C@H](C(=O)N[C@@H](CC(=O)O)C(N)=O)CSCC(=O)N[C@@H](Cc2ccc3ccccc3c2)C(=O)N[C@@H](Cc2c[nH]c3ccccc23)C(=O)N[C@@H](CC(=O)O)C1=O", "note": "[compound 1227] ({CH2CO}-[2Nal]WD[NHexGly]Y[Nle]D[Orn]L[Ahp(2)]PVDCD-NH2; thioether N-14)", "values": [{"measurement": "IC50", "setting": "[2]", "value": 0.0322, "unit": "µM"}]}, {"compound": "CCCCCCN1CC(=O)N[C@@H](Cc2ccc(O)cc2)C(=O)N[C@@H](CCCCC)C(=O)N[C@@H](CC(=O)O)C(=O)N[C@@H](CCCNC(=N)N)C(=O)N[C@@H](CC(C)C)C(=O)N[C@@H](CCCCC)C(=O)N2CCC[C@H]2C(=O)N[C@@H](C(C)C)C(=O)N[C@@H](CC(=O)O)C(=O)N[C@H](C(=O)NCC(N)=O)CSCC(=O)N[C@@H](Cc2ccc3ccccc3c2)C(=O)N[C@@H](Cc2ccc(O)cc2)C(=O)N[C@@H](CC(=O)O)C1=O", "note": "[Ex 1279] ({CH2CO}-[2Nal]YD[NHexGly]Y[Ahp(2)]DRL[Ahp(2)]PVDCG-NH2; thioether N-14)", "values": [{"measurement": "IC50", "setting": "[1]", "value": 0.0266, "unit": "µM"}]}, {"compound": "CCCCCCN1CC(=O)N[C@@H](Cc2ccc(O)cc2)C(=O)N[C@@H](CC(C)C)C(=O)N[C@@H](CC(N)=O)C(=O)N[C@@H](CCCNC(=N)N)C(=O)N(C)[C@@H](CCCC)C(=O)N[C@@H](CCCCC)C(=O)N2CCC[C@H]2C(=O)N[C@@H](C(C)(C)C)C(=O)N[C@@H](CC(=O)O)C(=O)N[C@H](C(=O)N[C@@H](CC(=O)NCCOCCOCC(=O)N[C@@H](CC(=O)O)C(=O)NCCOCCOCC(=O)NCCCCCCCCCCC(=O)O)C(=O)O)CSCC(=O)N[C@@H](Cc2ccc(C(N)=O)cc2)C(=O)N[C@@H](Cc2ccc(O)cc2)C(=O)N[C@@H](CC(=O)O)C1=O", "note": "[compound 2088] ({CH2CO}-[Phe(4-CONH2)]YD[NHexGly]YLNR[NMeNle][Ahp(2)]P[Tle]DC[βAsp][AEEA]D[AEEA][Aun]-OH; thioether N-14)", "values": [{"measurement": "IC50", "setting": "cell-based binding high-content assay, mVISTA, read-out: HC CBA miPrISTA IC50", "value": 0.0169, "unit": "µM"}]}, {"compound": "CCCCCCN1CC(=O)N[C@@H](Cc2ccc(O)cc2)C(=O)N[C@@H](CCCC)C(=O)N[C@@H](CC(=O)O)C(=O)N[C@@H](CCCN)C(=O)N[C@@H](CC(C)C)C(=O)N[C@@H](CCCCC)C(=O)N2CCC[C@H]2C(=O)N[C@@H](C(C)C)C(=O)N[C@@H](CC(=O)O)C(=O)N[C@H](C(=O)N[C@@H](CO)C(N)=O)CSCC(=O)N[C@@H](Cc2ccccc2)C(=O)N[C@@H](Cc2c[nH]c3ccccc23)C(=O)N[C@@H](CC(=O)O)C1=O", "note": "[Example 1365] ({CH2CO}-FWD[NHexGly]Y[Nle]D[Orn]L[Ahp(2)]PVDCS-NH2; thioether N-14)", "values": [{"measurement": "IC50", "setting": "read-out: HC CBA mVISTA IC50", "value": 0.0077, "unit": "µM"}]}, {"compound": "CCCCCCN1CC(=O)N[C@@H](Cc2ccc(O)cc2)C(=O)N[C@@H](CCCC)C(=O)N[C@@H](CC(N)=O)C(=O)N[C@@H](CCCNC(=N)N)C(=O)N[C@@H](CC(C)C)C(=O)N[C@@H](CCCCC)C(=O)N2CCC[C@H]2C(=O)N[C@@H](C(C)C)C(=O)N[C@@H](CC(=O)O)C(=O)N[C@H](C(=O)NCC(=O)O)CSCC(=O)N[C@@H](Cc2ccc3ccccc3c2)C(=O)N[C@@H](Cc2c[nH]c3ccccc23)C(=O)N[C@@H](CC(=O)O)C1=O", "note": "[compound 1229] ({CH2CO}-[2Nal]WD[NHexGly]Y[Nle]NRL[Ahp(2)]PVDCG-OH; thioether N-14)", "values": [{"measurement": "IC50", "setting": "[2]", "value": 0.0132, "unit": "µM"}]}, {"compound": "CCCCCCN1CC(=O)N[C@@H](Cc2ccc(O)cc2)C(=O)N[C@@H](CC2CCCCC2)C(=O)N[C@@H](CC(N)=O)C(=O)N[C@@H](CCCNC(=N)N)C(=O)N(C)[C@@H](CCCC)C(=O)N[C@@H](CCCCC)C(=O)N2CCC[C@H]2C(=O)N[C@@H](C(C)(C)C)C(=O)N[C@@H](CO)C(=O)N[C@H](C(=O)N[C@@H](CC(=O)NCCOCCOCC(=O)N[C@@H](CC(=O)O)C(=O)NCCOCCOCC(=O)NCCCCCCCCCCC(=O)O)C(=O)O)CSCC(=O)N[C@@H](Cc2ccccc2)C(=O)N[C@@H](Cc2ccc(O)cc2)C(=O)N[C@@H](CC(=O)O)C1=O", "note": "[compound 2053] ({CH2CO}-FYD[NHexGly]Y[Cha]NR[NMeNle][Ahp(2)]P[Tle]SC[βAsp][AEEA]D[AEEA][Aun]-OH; thioether N-14)", "values": [{"measurement": "IC50", "setting": "[3]", "value": 0.0394, "unit": "µM"}]}, {"compound": "CCCCCCN1CC(=O)N[C@@H](Cc2ccc(O)cc2)C(=O)N[C@@H](CCCC)C(=O)N[C@@H](CC(N)=O)C(=O)N[C@@H](CCCNC(=N)N)C(=O)N(C)[C@@H](CCCC)C(=O)N[C@@H](CCCCC)C(=O)N2CCCC[C@H]2C(=O)N[C@@H](C(C)C)C(=O)N[C@@H](CO)C(=O)N[C@H](C(=O)NCC(N)=O)CSCC(=O)N[C@@H](Cc2ccccc2)C(=O)N[C@@H](Cc2c[nH]c3ccccc23)C(=O)N[C@@H](CC(=O)O)C1=O", "note": "[compound 1145] ({CH2CO}-FWD[NHexGly]Y[Nle]NR[NMeNle][Ahp(2)][Pip]VSCG-NH2; thioether N-14)", "values": [{"measurement": "IC50", "setting": "read-out: HC CBA mVISTA IC50", "value": 0.0286, "unit": "µM"}]}, {"compound": "CCCCCCN1CC(=O)N[C@@H](Cc2ccc(O)cc2)C(=O)N[C@@H](CCCC)C(=O)NCC(=O)N[C@@H](CCCNC(N)=O)C(=O)N[C@@H](CC(C)C)C(=O)N[C@@H](CCCCC)C(=O)N2CCC[C@H]2C(=O)N[C@@H](C(C)C)C(=O)N[C@@H](CC(=O)O)C(=O)N[C@H](C(=O)NCC(=O)NCCOCCOCC(=O)N[C@@H](CC(=O)O)C(=O)NCCOCCOCC(=O)NCCCCCCCCCCC(=O)O)CSCC(=O)N[C@@H](Cc2cccc(C)c2)C(=O)N[C@@H](Cc2ccc(O)cc2)C(=O)N[C@@H](CC(=O)O)C1=O", "note": "[compound 2019] ({CH2CO}-[Phe(3-Me)]YD[NHexGly]Y[Nle]G[Cit]L[Ahp(2)]PVDCG[AEEA]D[AEEA][Aun]-OH; thioether N-14)", "values": [{"measurement": "IC50", "setting": "[3]", "value": 0.0144, "unit": "µM"}]}, {"compound": "CCCCCCN1CC(=O)N[C@@H](Cc2ccc(O)cc2)C(=O)N[C@@H](CC(C)C)C(=O)N[C@@H](CC(N)=O)C(=O)N[C@@H](CCCNC(=N)N)C(=O)N(C)[C@@H](CO)C(=O)N[C@@H](CCCCC)C(=O)N2CCC[C@H]2C(=O)N[C@@H](C(C)(C)C)C(=O)N[C@@H](CO)C(=O)N[C@H](C(=O)NCCOCCOCC(=O)N[C@@H](CCC(=O)NCCOCCOCC(=O)NCCCCCCCCCCC(=O)O)C(=O)O)CSCC(=O)N[C@@H](Cc2ccccc2)C(=O)N[C@@H](Cc2c[nH]c3ccccc23)C(=O)N[C@@H](CC(=O)O)C1=O", "note": "[compound 2266] ({CH2CO}-FWD[NHexGly]YLNR[NMeS][Ahp(2)]P[Tle]SC[AEEA][γGlu][AEEA][Aun]-OH; thioether N-14)", "values": [{"measurement": "IC50", "setting": "read-out: HC CBA mVISTA IC50", "value": 0.0379, "unit": "µM"}]}]}
